Like-named read-outs stand apart in the source and are kept apart here.
Target: T1, human caspase-2 (Homo sapiens, UniProt P42575)
T1 construct: inferred from pET23b, XhoI reverse primer without stop codon, Ni-NTA purification) (C); made in house; host or cells: E. coli BL21(DE3)
T1 sequence (P42575 170-452): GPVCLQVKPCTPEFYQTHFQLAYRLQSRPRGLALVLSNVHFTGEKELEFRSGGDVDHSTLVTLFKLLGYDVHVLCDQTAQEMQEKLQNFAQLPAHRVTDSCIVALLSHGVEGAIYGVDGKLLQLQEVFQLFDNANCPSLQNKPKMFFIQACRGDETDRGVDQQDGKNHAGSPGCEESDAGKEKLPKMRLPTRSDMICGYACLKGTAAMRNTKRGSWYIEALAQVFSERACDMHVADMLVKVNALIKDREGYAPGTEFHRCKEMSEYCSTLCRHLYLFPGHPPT
Assay: Fluorescent enzyme assay, Casp2 (AFC substrate Z-VDVAD-AFC)
Type: biochemical
Details: for Ki (Casp3) / Ki (Casp2): selectivity Casp2 over Casp3
Description: Human recombinant Casp1, 6, 7, and 9 were purchased from BioVision (Milpitas/CA, USA). AFC fluorogenic substrates and control peptides (AcYVAD-CHO, AcVDVAD-CHO, AcDEVD-CHO, AcVEID-CHO, and AcLEHD-CHO) were purchased from Bachem (Torrance/CA, USA). The pET23b vector encoding human caspase-3 was a gift of Dr. Michelle Arkin at University of California, San Francisco. Expression and purification of Casp3 was guided by previously described protocols (Denault J-B, Salvesen G S., Current Protocols in Protein Science, 2002, 30(1), 21.13. 1-21.13. 15). Briefly, the plasmid was transformed into E. coli Rosetta 2 pLyss DE3 cells that were cultured at 1 L scale in shake flasks. Five hours post induction with IPTG, cells were harvested through centrifugation (4000 g for 10 minutes at 4° C.), lysed by sonication, and centrifuged again for 30 minutes at 20000 g. Supernatant was resuspended in buffer (100 mM Tris pH 8.0, 500 mM NaCl). Purification was achieved by nickel-affinity chromatography followed by ion-exchange chromatography. Protein was diluted to 0.5 mg/mL and stored at −80° C. in 100 mM Tris, pH 8.0 supplemented with 10% glycerol. The typical yield for the expression, isolation, and purification was approximately 3 mg/L. The DNA encoding human caspase-2 (hCASP2, amino acids 170-452, free of the N-terminal caspase activation and recruitment domain) open reading frame (ORF) was amplified via polymerase chain reaction (PCR) from full-length hCASP2 cDNA (Origene, Rockville, MD; Cat #SC321316) using following primers: forward, 5′-[…]-3′; reverse, 5′-[…]-3′. The PCR fragment was then cloned into the pET23b vector (Millipore Sigma, Burlington, MA), and DNA sequence was verified by classic Sanger sequencing analyses. Site-directed mutageneses were carried out using a QuikChange II XL site-directed mutagenesis kit (Agilent Technologies, Santa Clara, CA; Cat #200522) according to the manufacturer's instruction. Expression of recombinant hCASP2 was induced using 150 μM isopropyl-β-D-thiogalactopyranoside (IPTG) (Promega, Madison, WI) in the BL21(DE3) E. coli strain (Millipore Sigma) at 16° C. for 14 hours while shaking at 250 rpm. Cells were then harvested via centrifugation at 6,000 g, 4° C. for 15 minutes, followed by lysis via sonication. Proteins were initially purified using HisPur Ni-NTA resin (Thermo Fisher Scientific, Waltham, MA) followed by metal chelating chromatography (5 mL HiTrap Chelating HP columns (GE Healthcare Life Sciences, Piscataway, NJ)). Further purification was carried out using anion exchange chromatography (5 mL HiTrap Q HP columns (GE Healthcare Life Sciences)) for hCASP2. Proteins were stored in 1× phosphate-buffered saline (pH 7.4) at 10 mg/mL (concentration determined using a BCA assay (Thermo Fisher Scientific)), −80° C. until further use.
KM values were determined experimentally to be the following: Casp1: 5.9 μM; Casp2: 37.1 μM; Casp3: 7.6 μM; Casp6: 14.5 μM; Casp7: 13.8 μM; Casp9: 149.1 μM. Enzymes were diluted in buffer: 100 mM MES (pH 6.5) for Casp2 and or 100 mM HEPES (pH 7.0) for all other caspases, plus 150 mM NaCl, 0.1% CHAPS, 1.5% sucrose, 10 mM DTT. Enzyme concentrations were 0.05 U/well for Casp1, 6, and 7; 0.5 U/well for Casp9, 20 nM/well for Casp2, and 2 nM/well for Casp3. Enzyme in buffer (19 μL) was added per well in a black 384-well Corning 4514 assay plate. Test compounds were serially diluted in dimethyl sulfoxide (DMSO) and plated in duplicate into a Corning 3656 transfer plate. Test compound was added to assay plates in 0.5 μL aliquots per well and mixed 10 times using a BiomekFX (Beckman Coulter). Compound and enzyme mixture was incubated at 37° C. for 5 minutes for aldehyde warheads and 45 minutes for cyano warheads. […]

CC(=O)N[C@H](C(=O)NC(CC(=O)O)C(=O)N[C@H](C(=O)N1CCc2cc(C)ccc2C1C(=O)N[C@H](C=O)CC(=O)O)C(C)C)C(C)C (stereo in doubt) [Compound 30a, (R)-3-((S)-2-acetamido-3-methylbutanamido)-4-(((S)-1-((S)-1-(((S)-1-carboxy-3-oxopropan-2-yl)carbamoyl)-6-methyl-3,4-dihydroisoquinolin-2(1H)-yl)-3-methyl-1-oxobutan-2-yl)amino)-4-oxobutanoic acid, reference compound]
Ki (mean ± SEM of N independent experiments, each in duplicate or triplicate, read-out: pKi ± SEM Casp 2 (converted)): 10.5 µM | Ki (Casp3) / Ki (Casp2): >9

Cc1ccc2c(c1)CCN(C(=O)[C@@H](NC(=O)[C@H](CCCC(=O)O)NC(=O)C1Cc3ccccc3N1)C(C)C)[C@@H]2C(=O)N[C@H](C#N)CC(=O)O (stereo partly drawn) [Compound 1, (8)-6-(((S)-1-((8)-1-(((S)-2-carboxy-1-cyanoethyl)carbamoyl)-6-methyl-3,4-dihydroisoquinolin-2(1H)-yl)-3-methyl-1-oxobutan-2-yl)amino)-5-((S)-indoline-2-carboxamido)-6-oxohexanoic acid]
Ki: 0.00759 µM | selective versus Casp3 (Casp2 over Casp3): 123 fold | Ki (Casp3) / Ki (Casp2): 123

CC(=O)N[C@H](C(=O)N[C@@H](CC(=O)O)C(=O)N[C@H](C(=O)N1CCc2cc(C)ccc2[C@H]1C(=O)N[C@H](C=O)CC(=O)O)C(C)C)C(C)C [Compound 30b, (S)-3-((S)-2-acetamido-3-methylbutanamido)-4-(((S)-1-((S)-1-(((S)-1-carboxy-3-oxopropan-2-yl)carbamoyl)-6-methyl-3,4-dihydroisoquinolin-2(1H)-yl)-3-methyl-1-oxobutan-2-yl)amino)-4-oxobutanoic acid, reference compound]
pKi ± SEM Casp 2 (mean ± SEM of N independent experiments, each in duplicate or triplicate): 7.89 ± 0.02 | Ki (Casp3) / Ki (Casp2): 70

— US20250188123A1, “PROTEASE INHIBITORS” (Regents of the University of Minnesota, priority 2022, published 2025)
